Tested on: compound-treated mice
Assay: Neuropharmacological assay (SmartCube): behavioral activity signature and minimal effective dose
Assay type: in vivo
Conditions: for minimal effective dose: Mus musculus, ip, MED = dose having 50% or more total activity, read-out: Potency: minimal effective dose (MED); for AD: ADHD (probability of activity signature) / AG: analgesic (probability of activity signature) / AX: anxiolytic (probability of activity signature) / CE: cognitive enhancer (probability of activity signature) / DP: anti-depressant (probability of activity signature) / MS: mood stabilizer (probability of activity signature) / PS: anti-psychotic (probability of activity signature) / SD: sedative hypnotic (probability of activity signature) / UN: uncharacterized CNS activity (probability of activity signature): i.p. 15 min before test, most efficacious dose(s)
Method in brief: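 Video-recorded behavior is compared algorithmically against a reference-compound database, yielding class probabilities (best dose reported). Compounds given i.p. in NMP/PEG/propylene glycol 15 min pre-test at 3 doses; potency as MED, the dose (mpk, range usually 0.3–30) reaching ≥50% total activity.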

Structure (SMILES)	minimal effective dose [mg/kg]	AD: ADHD (probability of activity signature)	AG: analgesic (probability of activity signature)	AX: anxiolytic (probability of activity signature)	CE: cognitive enhancer (probability of activity signature)	DP: anti-depressant (probability of activity signature)	MS: mood stabilizer (probability of activity signature)	PS: anti-psychotic (probability of activity signature)	SD: sedative hypnotic (probability of activity signature)	UN: uncharacterized CNS activity (probability of activity signature)
CNC1COCc2ccc(C)c(C)c21.Cl (stereo not drawn) [Example 57, N,5,6-Trimethylisochroman-4-amine hydrochloride]	3 to 10	+ (LOQ ≤ + <5%)	++ (5% ≤ ++ <25%)	++ (5% ≤ ++ <25%)	+++ (25% ≤ +++ <50%)	++ (5% ≤ ++ <25%)	+ (LOQ ≤ + <5%)	++ (5% ≤ ++ <25%)	++ (5% ≤ ++ <25%)	+++ (25% ≤ +++ <50%)
CCNC1COCc2ccc(C)c(C)c21.Cl (stereo not drawn) [Example 58]	3 to 10	+ (LOQ ≤ + <5%)	++ (5% ≤ ++ <25%)	++ (5% ≤ ++ <25%)	++ (5% ≤ ++ <25%)	++ (5% ≤ ++ <25%)	+ (LOQ ≤ + <5%)	++ (5% ≤ ++ <25%)	++ (5% ≤ ++ <25%)	+++ (25% ≤ +++ <50%)
CNC1CCOCc2ccc(C)cc21.Cl (stereo not drawn) [Example 59]	3 to 10	+ (LOQ ≤ + <5%)	+++ (25% ≤ +++ <50%)	++ (5% ≤ ++ <25%)	++ (5% ≤ ++ <25%)	++ (5% ≤ ++ <25%)	+ (LOQ ≤ + <5%)	++ (5% ≤ ++ <25%)	++ (5% ≤ ++ <25%)	+++ (25% ≤ +++ <50%)
CN(C)C1COCc2ccccc21.Cl (stereo not drawn) [Example 60, N,N-dimethylisochroman-4-amine hydrochloride]	10 to 30	+ (LOQ ≤ + <5%)	++ (5% ≤ ++ <25%)	+++ (25% ≤ +++ <50%)	++ (5% ≤ ++ <25%)	++ (5% ≤ ++ <25%)	+ (LOQ ≤ + <5%)	++ (5% ≤ ++ <25%)	+ (LOQ ≤ + <5%)	+ (LOQ ≤ + <5%)
Cc1ccc2c(c1C)C(N(C)C)COC2.Cl (stereo not drawn) [Example 61]	10 to 30	+ (LOQ ≤ + <5%)	++ (5% ≤ ++ <25%)	++ (5% ≤ ++ <25%)	++ (5% ≤ ++ <25%)	+ (LOQ ≤ + <5%)	+ (LOQ ≤ + <5%)	++ (5% ≤ ++ <25%)	+ (LOQ ≤ + <5%)	++++ (50% ≤ ++++)
Cc1ccc2c(c1)C(N(C)C)CCOC2.Cl (stereo not drawn) [Example 62]	3 to 10	+ (LOQ ≤ + <5%)	++ (5% ≤ ++ <25%)	++ (5% ≤ ++ <25%)	+++ (25% ≤ +++ <50%)	++ (5% ≤ ++ <25%)	++ (5% ≤ ++ <25%)	++ (5% ≤ ++ <25%)	+ (LOQ ≤ + <5%)	++++ (50% ≤ ++++)
Cc1ccc2c(c1)C(N)C(C)(C)COC2.Cl (stereo not drawn) [Example 63, 4,4,7-Trimethyl-1,3,4,5-tetrahydrobenzo[c]oxepin-5-amine hydrochloride]	10 to 30	+ (LOQ ≤ + <5%)	++ (5% ≤ ++ <25%)	++ (5% ≤ ++ <25%)	++ (5% ≤ ++ <25%)	++ (5% ≤ ++ <25%)	+ (LOQ ≤ + <5%)	+ (LOQ ≤ + <5%)	+ (LOQ ≤ + <5%)	++ (5% ≤ ++ <25%)
CC1(N)COCc2ccc(F)cc21.Cl (stereo not drawn) [Example 68, 6-Fluoro-4-methylisochroman-4-amine hydrochloride]	10 to 30	+ (LOQ ≤ + <5%)	++ (5% ≤ ++ <25%)	++ (5% ≤ ++ <25%)	++ (5% ≤ ++ <25%)	++ (5% ≤ ++ <25%)	+ (LOQ ≤ + <5%)	++ (5% ≤ ++ <25%)	+ (LOQ ≤ + <5%)	++ (5% ≤ ++ <25%)
Cc1ccc2c(c1C)[C@H](N)[C@H](C)OC2.Cl [Example 78]	3 to 10	+ (LOQ ≤ + <5%)	++ (5% ≤ ++ <25%)	++ (5% ≤ ++ <25%)	++ (5% ≤ ++ <25%)	++ (5% ≤ ++ <25%)	+ (LOQ ≤ + <5%)	+++ (25% ≤ +++ <50%)	+ (LOQ ≤ + <5%)	++++ (50% ≤ ++++)
Cc1ccc2c(c1C)[C@H](N)[C@@H](C)OC2.Cl [Example 79]	3 to 10	+ (LOQ ≤ + <5%)	++ (5% ≤ ++ <25%)	+++ (25% ≤ +++ <50%)	++ (5% ≤ ++ <25%)	++ (5% ≤ ++ <25%)	+ (LOQ ≤ + <5%)	++ (5% ≤ ++ <25%)	++ (5% ≤ ++ <25%)	++ (5% ≤ ++ <25%)
C[C@@H]1OCc2cccc(Cl)c2[C@@H]1N.Cl [Example 80]	< 3	+ (LOQ ≤ + <5%)	++ (5% ≤ ++ <25%)	+++ (25% ≤ +++ <50%)	+ (LOQ ≤ + <5%)	+ (LOQ ≤ + <5%)	+ (LOQ ≤ + <5%)	++ (5% ≤ ++ <25%)	++ (5% ≤ ++ <25%)	+++ (25% ≤ +++ <50%)
C[C@H]1OCc2cccc(Cl)c2[C@@H]1N.Cl [Example 81]	< 3	+ (LOQ ≤ + <5%)	++ (5% ≤ ++ <25%)	+++ (25% ≤ +++ <50%)	++ (5% ≤ ++ <25%)	++ (5% ≤ ++ <25%)	+ (LOQ ≤ + <5%)	++ (5% ≤ ++ <25%)	++ (5% ≤ ++ <25%)	+++ (25% ≤ +++ <50%)

From patent US11077090B2, “Compounds and compositions and uses thereof” (Sunovion Pharmaceuticals Inc., priority 2016, dated 2021)
